Test results: patent US9006210B2, “Compositions and methods for treating corneal inflammation” (Case Western Reserve University, priority 2008, dated 2015)
“Also recorded” adds a separate entry of the source. Blank lines part the entries; values can stand above or below the compound they belong to.

Tests used:
TLR4 [1] = biological target: T1, TLR4 (Mus musculus, UniProt Q9JHF9+Q9QUK6); design: species or system C57BL/6 mice; details: in vivo
T1 construct: Corneas of C57BL/6 mice were abraded with three parallel, superficial scratches; from tissue; host or cells: cornea of living C57BL/6 mice
T1 sequence (Q9QUK6 26-835): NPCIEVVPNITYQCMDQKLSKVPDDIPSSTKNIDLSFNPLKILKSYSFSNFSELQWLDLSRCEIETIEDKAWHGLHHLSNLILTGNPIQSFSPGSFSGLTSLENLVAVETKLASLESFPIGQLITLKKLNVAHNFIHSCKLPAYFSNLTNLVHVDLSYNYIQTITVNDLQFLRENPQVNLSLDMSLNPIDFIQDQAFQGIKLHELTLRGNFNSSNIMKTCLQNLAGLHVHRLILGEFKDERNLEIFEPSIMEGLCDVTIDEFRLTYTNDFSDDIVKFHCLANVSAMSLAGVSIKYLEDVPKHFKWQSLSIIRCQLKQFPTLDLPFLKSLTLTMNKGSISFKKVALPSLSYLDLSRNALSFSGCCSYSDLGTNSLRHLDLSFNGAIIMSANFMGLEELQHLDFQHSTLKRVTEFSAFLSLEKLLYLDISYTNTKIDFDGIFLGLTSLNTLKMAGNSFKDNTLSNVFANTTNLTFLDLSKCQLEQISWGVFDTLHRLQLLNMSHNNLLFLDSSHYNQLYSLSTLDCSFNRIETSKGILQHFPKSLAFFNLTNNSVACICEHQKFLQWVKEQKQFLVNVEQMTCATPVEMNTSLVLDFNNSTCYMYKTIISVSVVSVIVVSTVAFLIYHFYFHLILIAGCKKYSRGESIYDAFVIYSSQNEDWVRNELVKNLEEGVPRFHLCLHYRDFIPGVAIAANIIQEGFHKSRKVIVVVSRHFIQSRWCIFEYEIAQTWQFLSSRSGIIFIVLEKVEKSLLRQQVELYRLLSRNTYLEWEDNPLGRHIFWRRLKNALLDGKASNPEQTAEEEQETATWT
T1 sequence (Q9JHF9 19-160): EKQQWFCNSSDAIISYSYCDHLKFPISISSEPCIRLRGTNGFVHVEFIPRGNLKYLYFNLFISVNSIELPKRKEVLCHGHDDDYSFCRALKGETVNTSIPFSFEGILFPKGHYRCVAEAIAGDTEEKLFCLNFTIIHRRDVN
Protocol: (§5) C57BL/6 mice (6-8 weeks old) were obtained from The Jackson Laboratory (Bar Harbor, Me.). Mice were anesthetized by intraperitoneal injection of 0.4 ml 2,2,2-tribromoethanol (TBE). A 26 gauge needle was used to make three parallel abrasions in the corneal epithelium as described in our previous studies. Eritoran tetrasodium or placebo at concentrations indicated for each experiment was added topically, and a 2 mm diameter punch from a normal contact lens (LOTRAFILCON A; CIBA VISION) was added to the corneal surface (See FIG. 1). After an additional 1 h, the lens was briefly removed, and 2 μl LPS (20 mg/ml) or Pam3Cys (5 mg/ml) was placed on the corneal surface. The contact lens button was then replaced, and after an additional 1 h, the lens was removed and the mice were allowed to recover from anesthesia. In some experiments, the order of agonist and antagonist was reversed, or both were given simultaneously.
Briefly, Corneas of C57BL/6 mice were abraded with three parallel, superficial scratches. 2 μl of 350 mg/ml Eritoran or placebo was added topically, and a 2 mm diameter punch from a soft contact lens was placed on the corneal surface as shown in FIG. 1. […] After 1 h, the lens was removed, and 3 h later (4 h after stimulation), and corneas were dissected, homogenized, and CXCL1/KC was measured by ELISA.

TLR2 [2] = biological target: T2, TLR2 (Mus musculus, UniProt Q9QUN7); assay: Pam3Cys-induced CXCL1/KC production in the cornea, mouse contact lens model; type: in vivo, C57BL/6 mice; details: topical pre-treatment 1 h before Pam3Cys; ELISA 4 h after stimulation; vs placebo
T2 construct: Corneas of C57BL/6 mice were abraded with three parallel, superficial scratches; from tissue; host or cells: cornea of living C57BL/6 mice
T2 sequence (Q9QUN7 25-784): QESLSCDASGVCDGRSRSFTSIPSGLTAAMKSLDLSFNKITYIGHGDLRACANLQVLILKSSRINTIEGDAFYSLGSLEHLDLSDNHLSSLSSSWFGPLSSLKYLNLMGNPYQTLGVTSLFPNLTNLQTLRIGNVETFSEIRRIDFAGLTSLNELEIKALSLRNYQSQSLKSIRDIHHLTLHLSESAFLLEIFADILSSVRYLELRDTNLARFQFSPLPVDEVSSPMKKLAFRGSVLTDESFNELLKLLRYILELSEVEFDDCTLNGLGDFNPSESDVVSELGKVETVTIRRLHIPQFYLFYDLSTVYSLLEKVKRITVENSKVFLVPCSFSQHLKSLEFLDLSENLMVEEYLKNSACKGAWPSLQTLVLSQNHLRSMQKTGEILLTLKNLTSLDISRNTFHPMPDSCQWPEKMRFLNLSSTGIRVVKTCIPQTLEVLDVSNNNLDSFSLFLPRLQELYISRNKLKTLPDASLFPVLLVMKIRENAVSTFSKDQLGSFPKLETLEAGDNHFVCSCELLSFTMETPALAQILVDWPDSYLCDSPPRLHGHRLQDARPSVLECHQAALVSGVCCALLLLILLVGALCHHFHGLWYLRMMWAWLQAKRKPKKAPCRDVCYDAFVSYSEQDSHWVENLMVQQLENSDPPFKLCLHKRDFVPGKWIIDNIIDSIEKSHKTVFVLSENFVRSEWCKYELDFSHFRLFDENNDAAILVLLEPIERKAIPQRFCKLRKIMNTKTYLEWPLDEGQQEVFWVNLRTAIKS
Protocol: as §5
Briefly, Corneas of C57BL/6 mice were abraded with three parallel, superficial scratches. 2 μl of 350 mg/ml Eritoran or placebo was added topically, and a 2 mm diameter punch from a soft contact lens was placed on the corneal surface as shown in FIG. 1. […] After 1 h, the lens was removed, and 3 h later (4 h after stimulation), and corneas were dissected, homogenized, and CXCL1/KC was measured by ELISA. […]

TLR4 [3] = biological target: T1, TLR4; design: species or system C57BL/6 mice; details: in vivo; remark: listed apart in the source
TLR2 [4] = biological target: T2, TLR2; assay: Pam3Cys-induced contact lens corneal inflammation (neutrophil infiltrate, reflectivity); type: in vivo, C57BL/6 mice
corneal epithelium = test system: corneal epithelium
Protocol: The cell viability in vitro was measured by trypan blue. The corneal sections were incubated with terminal deoxynucleotidyl transferase-mediated dUTP nick end labeling (TUNEL) reagents according to manufacturer's directions (Roche, Penzberg, Germany), and the number of TUNEL positive cells in the cornea was quantified by fluorescence microscopy.
Mice were pre-treated with 2.2 μg eritoran tetrasodium prior to LPS, as described above, and eyes were snap frozen. We used a TUNEL assay on 5 μm corneal sections to identify apoptotic cells. Total cells were identified using DAPI.

TLR2 [5] = biological target: T3, TLR2 (Homo sapiens, UniProt O60603); assay: Pam3Cys-induced IL-8 production by human corneal epithelial cells (HCE-T); type: cell-based; details: 500 ng/ml Pam3Cys, 24 h
T3 construct: endogenous in cells; host or cells: HCE-T human corneal epithelial cell line (ATCC)
T3 sequence (O60603 21-784): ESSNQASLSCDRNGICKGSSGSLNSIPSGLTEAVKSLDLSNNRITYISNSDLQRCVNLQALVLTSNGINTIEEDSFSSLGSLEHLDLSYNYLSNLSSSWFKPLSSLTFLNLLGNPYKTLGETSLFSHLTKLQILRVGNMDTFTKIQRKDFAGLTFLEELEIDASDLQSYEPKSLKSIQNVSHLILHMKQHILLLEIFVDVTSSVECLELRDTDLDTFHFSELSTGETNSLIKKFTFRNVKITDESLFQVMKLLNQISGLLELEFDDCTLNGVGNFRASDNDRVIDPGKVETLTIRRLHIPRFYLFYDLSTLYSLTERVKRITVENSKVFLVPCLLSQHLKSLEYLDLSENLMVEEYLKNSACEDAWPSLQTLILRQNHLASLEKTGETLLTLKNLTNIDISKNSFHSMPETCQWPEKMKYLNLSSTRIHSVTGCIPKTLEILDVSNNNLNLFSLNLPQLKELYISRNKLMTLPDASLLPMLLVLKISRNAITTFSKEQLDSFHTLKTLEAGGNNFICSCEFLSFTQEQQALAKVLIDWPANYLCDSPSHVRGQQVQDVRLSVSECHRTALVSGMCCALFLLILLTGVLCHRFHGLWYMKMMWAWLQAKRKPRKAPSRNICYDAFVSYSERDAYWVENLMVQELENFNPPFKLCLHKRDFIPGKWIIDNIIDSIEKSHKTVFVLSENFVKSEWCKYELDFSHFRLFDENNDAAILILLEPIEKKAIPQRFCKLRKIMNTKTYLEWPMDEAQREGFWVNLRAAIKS
Protocol: (§1) The SV-40 transfected human corneal epithelial cell line (HCE-T) was obtained from ATCC. Before stimulation, HCE cells were plated into 48 well plates and underwent epidermal growth factor starvation overnight. As HCE cells require exogenous MD-2 to respond to LPS, cells were incubated 1 h with 200 ng/ml recombinant human MD-2 (R&D Systems, Minneapolis, Minn.) prior to stimulation with ultrapure LPS (TLR4-specific, Escherichia coli K12, Invivogen; San Diego, Calif.). HCE cells were also incubated with Pam3CysK4 (EMC Microcollections, Germany) in the absence of MD-2.
(§2) All cells were incubated with eritoran or placebo, followed by stimulation with LPS or Pam3CysK4 at optimal concentrations for each cells line (noted in results). After 3 h, cell-free supernatants were collected, and CXCL8/IL-8 was measured by ELISA (R&D Systems).
Cell lines derived from human corneal epithelial cells (HCE-T), macrophages (U937) and neutrophils (HL-60) were stimulated with LPS or Pam3Cys in the presence of eritoran tetrasodium or placebo. After 3 h (U937 and HL-60 cells) or 24 h (HCE-T cell), IL-8 levels in culture supernatants were quantified by ELISA. […] FIGS. 16 and 17 show macrophages stimulated with 10 ng/ml LPS or 500 ng/ml Pam3Cys in the presence of Eritoran or placebo. FIGS. 18 and 19 show neutrophils stimulated with 1 ng/ml LPS or 500 ng/ml Pam3Cys and Eritoran or placebo. […]

TLR2 [6] = biological target: T3, TLR2; assay: Pam3Cys-induced IL-8 production by macrophages (U937); type: cell-based; details: 500 ng/ml Pam3Cys, 3 h
Protocol: (§3) The U937 macrophage-cell line was cultured in RPMI medium (GIBCO) with 10% FBS, and 5×10^4 cells/well were added to 96-well plates. The human neutrophil-like cell line (HL-60) was maintained in RPMI with 10% FBS, and incubated five days in 1.2% DMSO to generate the neutrophil phenotype.
as §2
(§4) Cell lines derived from human corneal epithelial cells (HCE-T), macrophages (U937) and neutrophils (HL-60) were stimulated with LPS or Pam3Cys in the presence of eritoran tetrasodium or placebo. After 3 h (U937 and HL-60 cells) or 24 h (HCE-T cell), IL-8 levels in culture supernatants were quantified by ELISA. […] FIGS. 16 and 17 show macrophages stimulated with 10 ng/ml LPS or 500 ng/ml Pam3Cys in the presence of Eritoran or placebo. FIGS. 18 and 19 show neutrophils stimulated with 1 ng/ml LPS or 500 ng/ml Pam3Cys and Eritoran or placebo. LPS concentrations were based on preliminary data showing optimal IL-8 production. […] Graphs are mean+/−SEM of three wells per sample. Experiments were repeated three times with similar results.

TLR2 [7] = biological target: T3, TLR2; assay: Pam3Cys-induced IL-8 production by neutrophils (HL-60); type: cell-based; details: HL-60 neutrophils; 500 ng/ml Pam3Cys; 3 h
Protocol: as §3, §2, §4

TLR4/MD-2 = biological target: T4, TLR4/MD-2 (Mus musculus, UniProt Q9JHF9+Q9QUK6); design: species or system C57BL/6 mice; details: in vivo
T4 construct: from tissue; host or cells: cornea of living C57BL/6 mice
T4 sequence (Q9QUK6 26-835): T1 sequence (Q9QUK6 26-835)
T4 sequence (Q9JHF9 19-160): T1 sequence (Q9JHF9 19-160)

TLR4 [8] = biological target: T5, TLR4 (Homo sapiens, UniProt O00206+Q9Y6Y9); assay: LPS-induced IL-8 production by macrophages (U937); type: cell-based; design: endogenous in cells; details: for LPS-induced IL-8 production: U937 macrophages, 10 ng/ml LPS, 3 h
T5 sequence (O00206 24-839): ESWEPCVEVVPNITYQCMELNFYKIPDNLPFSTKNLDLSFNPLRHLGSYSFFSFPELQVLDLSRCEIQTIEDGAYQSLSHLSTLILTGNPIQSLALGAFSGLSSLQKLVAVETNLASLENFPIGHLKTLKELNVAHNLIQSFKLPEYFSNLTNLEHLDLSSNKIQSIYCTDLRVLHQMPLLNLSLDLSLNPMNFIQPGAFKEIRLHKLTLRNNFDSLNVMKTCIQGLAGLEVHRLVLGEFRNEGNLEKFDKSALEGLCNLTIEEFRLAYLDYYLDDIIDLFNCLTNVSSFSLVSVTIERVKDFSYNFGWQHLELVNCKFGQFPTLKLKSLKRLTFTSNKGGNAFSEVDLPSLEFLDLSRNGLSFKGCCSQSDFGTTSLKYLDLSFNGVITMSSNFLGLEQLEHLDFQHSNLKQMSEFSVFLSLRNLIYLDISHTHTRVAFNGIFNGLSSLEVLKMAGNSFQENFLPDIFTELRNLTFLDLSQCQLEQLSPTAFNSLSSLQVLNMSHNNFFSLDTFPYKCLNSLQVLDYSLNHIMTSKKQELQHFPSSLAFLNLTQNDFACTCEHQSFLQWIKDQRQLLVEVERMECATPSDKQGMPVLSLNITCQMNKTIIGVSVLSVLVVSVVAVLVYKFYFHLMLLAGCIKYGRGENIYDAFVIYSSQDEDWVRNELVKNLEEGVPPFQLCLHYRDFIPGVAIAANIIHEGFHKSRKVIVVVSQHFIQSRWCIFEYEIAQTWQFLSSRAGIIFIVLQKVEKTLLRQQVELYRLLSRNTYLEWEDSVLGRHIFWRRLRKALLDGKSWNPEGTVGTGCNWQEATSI
T5 sequence (Q9Y6Y9 19-160): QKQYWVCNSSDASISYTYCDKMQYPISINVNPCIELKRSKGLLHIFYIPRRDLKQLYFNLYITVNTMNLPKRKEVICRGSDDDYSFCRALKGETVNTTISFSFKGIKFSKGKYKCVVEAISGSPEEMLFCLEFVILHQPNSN
Protocol: as §3, §2, §4

TLR4 [9] = biological target: T5, TLR4; assay: LPS-induced IL-8 production by human corneal epithelial cells (HCE-T); type: cell-based; design: endogenous in cells; host or cells: HL-60 (five days in 1.2% DMSO); details: for LPS-induced IL-8 production: HCE-T cells, 900 ng/ml LPS with 0.2 μg/ml MD-2, 24 h, ELISA
Protocol: as §1, §2, §4

TLR4 [10] = biological target: T5, TLR4; assay: LPS-induced IL-8 production by neutrophils (HL-60); type: cell-based; design: endogenous in cells; host or cells: HL-60 (five days in 1.2% DMSO); details: for LPS-induced IL-8 production: HL-60 neutrophils, 1 ng/ml LPS, 3 h
Protocol: as §3, §2, §4

Gram negative Lipid A = details: cited from earlier work
[11] = pretreatment with the highest concentration, Pam3Cys stimulation

CXCL1/KC in LPS-stimulated corneas (TLR4 [1]): significantly inhibited | CXCL1/KC in Pam3Cys-stimulated corneas (TLR2 [2]): no difference | LPS-induced corneal haze (TLR4 [3]): significantly reduced | cellular infiltrate in the central corneal stroma (TLR4 [3]): minimal cellular infiltrate | concentration needed to reduce neutrophil numbers by 50% (TLR4 [3]): 0.35 mg/mL | effect on neutrophil numbers at concentrations lower than 1.1 mg/ml (TLR4 [3]): no significant effect | minimum inhibitory concentration (TLR4 [3]): 350 µg/mL | neutrophil numbers per corneal section (TLR4 [3]): dose-dependent reduction | second application after 3 h versus single treatment (TLR4 [3]): no significant difference | neutrophil infiltration (TLR2 [4]; [11]): no effect | total reflectivity (TLR2 [4]; [11]): no effect | Pam3Cys/TLR2-induced corneal inflammation (TLR2 [4]; topical pre-treatment): no effect | TUNEL positive cells in the corneal epithelium (corneal epithelium; 2.2 μg prior to LPS, presence or absence of LPS): no TUNEL positive cells | Pam3Cys-induced IL-8 production (TLR2 [5]): no effect | Pam3Cys-induced IL-8 production (TLR2 [6]): no effect | Pam3Cys-induced IL-8 production (TLR2 [7]): no effect | corneal haze (TLR4/MD-2): significantly inhibited | corneal thickness (TLR4/MD-2): significantly inhibited | neutrophil infiltration (TLR4/MD-2): significantly inhibited | LPS-induced IL-8 production (TLR4 [8]): significantly reduced | LPS-induced IL-8 production (TLR4 [8]; listed as Eritoran): dose dependent inhibition | concentration that inhibited LPS-induced IL-8 (TLR4 [8]; macrophage cell line (U937)): 1 ng/mL | LPS-induced IL-8 production (TLR4 [9]): significantly reduced | LPS-induced IL-8 production (TLR4 [9]; listed as Eritoran): dose dependent inhibition | dose required to inhibit LPS-induced IL-8, relative to macrophage and neutrophil lines (TLR4 [9]; human corneal epithelial cells with exogenous MD-2): required higher doses | LPS-induced IL-8 production (TLR4 [10]): significantly reduced | LPS-induced IL-8 production (TLR4 [10]; listed as Eritoran): dose dependent inhibition | concentration that inhibited LPS-induced IL-8 (TLR4 [10]; neutrophil cell line (HL-60)): 1 ng/mL
Compound: CCCCCC/C=C\CCCCCCCCCC(=O)N[C@H]1[C@H](OC[C@H]2O[C@H](OP(=O)([O-])[O-])[C@H](NC(=O)CC(=O)CCCCCCCCCCC)[C@@H](OCCCCCCCCCC)[C@@H]2O)O[C@H](COC)[C@@H](OP(=O)([O-])[O-])[C@@H]1OCC[C@@H](CCCCCCC)OC.[Na+].[Na+].[Na+].[Na+] [eritoran tetrasodium]
LPS-induced neutrophil infiltration (TLR4 [3]): significantly inhibited; also recorded: significantly reduced | pro-apoptotic effect (corneal epithelium; 2.2 μg, corneal epithelium): no pro-apoptotic effect

Compound: Rhodobacter sphaeroides lipid A [RSLA]
antagonistic activity for other Gram negative Lipid A (Gram negative Lipid A): pronounced antagonistic activity | agonist activity (Gram negative Lipid A; on some cell types): only minor agonist activity
